Test results reported in the supplement of paper PMC10307832.

What was measured:
Assay in all cases: relative viability (nuclei count vs DMSO), 5 days (fraction); higher = more cells survive
Neratinib + Navitoclax = compound: CCOc1cc2ncc(C#N)c(Nc3ccc(OCc4ccccn4)c(Cl)c3)c2cc1NC(=O)/C=C/CN(C)C [Neratinib] + CC1(C)CCC(c2ccc(Cl)cc2)=C(CN2CCN(c3ccc(C(=O)NS(=O)(=O)c4ccc(N[C@H](CCN5CCOCC5)CSc5ccccc5)c(S(=O)(=O)C(F)(F)F)c4)cc3)CC2)C1 [Navitoclax] (partner 0.5 µM)
Procedure, shortened: (§1)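 Relative viability equals treated-well nuclei counts divided by vehicle-well nuclei counts. Counts came from 4× images of lung cancer cell lines grown in 1536-well plates for 5 days after pin-tool dosing on the day after seeding. Dosing used one drug alone or a fixed anchor-drug dose plus five library-drug doses (not always all listed) in √10 steps, and values are medians of duplicate plates.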

Neratinib + Linsitinib = compound: CCOc1cc2ncc(C#N)c(Nc3ccc(OCc4ccccn4)c(Cl)c3)c2cc1NC(=O)/C=C/CN(C)C [Neratinib] + C[C@]1(O)C[C@@H](c2nc(-c3ccc4ccc(-c5ccccc5)nc4c3)c3c(N)nccn32)C1 [Linsitinib] (partner 1 µM)
Procedure, shortened: as §1

Neratinib + Alpelisib = compound: CCOc1cc2ncc(C#N)c(Nc3ccc(OCc4ccccn4)c(Cl)c3)c2cc1NC(=O)/C=C/CN(C)C [Neratinib] + Cc1nc(NC(=O)N2CCC[C@H]2C(N)=O)sc1-c1ccnc(C(C)(C)C(F)(F)F)c1 [Alpelisib] (partner 2 µM)
Procedure, shortened: as §1

Neratinib + Vorinostat = compound: CCOc1cc2ncc(C#N)c(Nc3ccc(OCc4ccccn4)c(Cl)c3)c2cc1NC(=O)/C=C/CN(C)C [Neratinib] + O=C(CCCCCCC(=O)Nc1ccccc1)NO [Vorinostat] (partner 1 µM)
Procedure, shortened: as §1

| Cell Line | relative viability (Neratinib + Navitoclax; first compound 0.01 µM) | relative viability (Neratinib + Navitoclax; first compound 0.03162 µM) | relative viability (Neratinib + Navitoclax; first compound 0.1 µM) | relative viability (Neratinib + Navitoclax; first compound 0.3162 µM) | relative viability (Neratinib + Navitoclax; first compound 1 µM) | relative viability (Neratinib + Linsitinib; first compound 0.01 µM) | relative viability (Neratinib + Linsitinib; first compound 0.03162 µM) | relative viability (Neratinib + Linsitinib; first compound 0.1 µM) | relative viability (Neratinib + Linsitinib; first compound 0.3162 µM) | relative viability (Neratinib + Linsitinib; first compound 1 µM) | relative viability (Neratinib + Alpelisib; first compound 0.01 µM) | relative viability (Neratinib + Alpelisib; first compound 0.03162 µM) | relative viability (Neratinib + Alpelisib; first compound 0.1 µM) | relative viability (Neratinib + Alpelisib; first compound 0.3162 µM) | relative viability (Neratinib + Alpelisib; first compound 1 µM) | relative viability (Neratinib + Vorinostat; first compound 0.01 µM) | relative viability (Neratinib + Vorinostat; first compound 0.03162 µM) | relative viability (Neratinib + Vorinostat; first compound 0.1 µM) | relative viability (Neratinib + Vorinostat; first compound 1 µM) | relative viability (Neratinib + Vorinostat; first compound 0.3162 µM) |
| --- | --- | --- | --- | --- | --- | --- | --- | --- | --- | --- | --- | --- | --- | --- | --- | --- | --- | --- | --- | --- |
| LCLC-97TM1 | 0.402 | 0.381 | 0.633 | 0.511 | 0.294 | 0.215 | 0.194 | 0.165 | 0.161 | 0.155 | 0.26 | 0.254 | 0.24 | 0.255 | 0.115 | 0.985 | 0.822 | 0.762 | 0.48 |  |
| HARA | 1.17 | 1.12 | 0.562 | 0.922 | 0.644 | 0.94 | 0.91 | 0.356 | 0.338 | 0.182 |  | 0.813 | 0.545 | 0.385 | 0.264 | 0.584 | 0.656 |  | 0.355 | 0.577 |
| HCC-78 | 0.747 |  | 0.702 | 0.663 | 0.231 | 0.543 | 0.665 | 0.483 | 0.338 | 0.241 | 0.359 | 0.344 | 0.329 | 0.254 | 0.225 | 0.547 | 0.408 | 0.352 | 0.28 | 0.362 |
| NCI-H1666 | 0.971 |  | 0.685 | 0.311 | 0.347 | 0.876 | 0.654 | 0.591 | 0.372 | 0.361 | 0.919 | 0.772 | 0.57 | 0.433 | 0.369 | 1.14 | 1.08 | 0.901 | 0.87 | 0.879 |
| NCI-H2405 | 0.904 | 0.887 | 0.784 | 0.785 | 0.188 | 0.945 | 1.03 | 0.836 | 0.792 | 0.469 | 0.815 | 0.808 | 0.811 | 0.633 | 0.287 | 1.32 | 1.18 | 0.955 | 0.891 | 1.04 |
| RERF-LC-KJ | 0.854 | 1.07 | 0.724 | 0.69 | 0.493 | 0.943 |  | 0.865 | 0.714 | 0.712 | 0.842 | 0.841 | 0.709 | 0.577 | 0.394 | 0.705 | 0.742 | 0.55 | 0.382 | 0.66 |
| NCI-H2085 | 1.18 | 1.14 |  | 0.88 | 0.804 | 0.858 | 1.11 | 0.81 | 0.668 | 0.474 | 1.02 |  | 0.778 | 0.7 | 0.549 | 0.825 |  | 0.687 | 0.696 | 0.623 |
| 201T | 1.26 | 1.19 | 1.18 | 1.22 | 1.25 | 1.01 | 1.01 | 0.92 | 0.931 | 0.852 | 1.06 | 0.945 | 0.926 | 1.01 | 0.9 | 0.978 | 0.95 | 0.783 | 0.849 | 0.969 |
| NCI-H1915 | 0.764 | 0.862 | 0.757 | 0.736 | 0.744 | 1.11 | 1.13 |  | 1.09 | 0.874 | 1.12 | 1.13 | 1.04 | 0.99 | 0.829 | 0.6 | 0.553 | 0.507 | 0.545 | 0.439 |
| NCI-H2023 | 0.987 | 1.04 | 0.909 | 0.943 | 0.699 | 0.658 | 0.675 | 0.465 | 0.446 | 0.303 | 0.62 | 0.611 | 0.511 | 0.445 | 0.298 | 0.937 | 0.532 | 0.495 | 0.375 | 0.602 |
| BEN | 0.0747 | 0.0585 | 0.0644 | 0.0753 | 0.0586 | 1.03 | 0.961 | 0.814 | 0.744 | 0.544 | 1.06 | 1.28 | 0.983 | 1.04 | 0.598 | 0.562 | 0.596 | 0.606 | 0.43 | 0.552 |
| SK-LU-1 | 0.842 | 0.979 |  | 0.0386 | 0.523 | 1.15 | 1.31 | 0.876 | 0.629 | 0.401 | 1.18 | 1.16 | 0.915 | 0.587 | 0.447 | 0.805 | 0.878 | 0.728 | 0.421 | 0.651 |
| SK-MES-1 | 1.38 | 1.3 | 1.06 | 0.651 | 0.432 |  | 1.09 | 0.888 | 0.507 | 0.395 | 0.914 | 0.988 | 0.661 | 0.384 | 0.207 | 1.12 | 1.08 | 1.05 | 0.29 | 0.925 |
| PC-3 [JPC-3] | 0.731 | 0.826 | 0.784 | 0.624 | 0.333 | 1.03 | 1.03 | 0.894 |  | 0.348 | 1.07 | 1.07 | 1.02 | 0.918 | 0.316 | 1.14 | 0.82 | 0.783 | 0.665 | 0.424 |
| NCI-H1355 | 0.912 | 1.06 | 0.825 | 0.843 | 0.618 | 0.894 | 0.825 | 0.775 | 0.63 | 0.453 | 0.949 | 0.83 | 0.788 | 0.698 | 0.236 | 0.724 | 0.649 | 0.591 | 0.447 | 0.602 |
| NCI-H1975 | 1.26 | 1.33 | 0.788 | 0.394 | 0.238 | 1.13 | 1.12 | 0.78 | 0.285 | 0.223 | 0.85 | 0.738 | 0.546 | 0.153 | 0.192 | 0.764 | 0.822 | 0.723 | 0.264 | 0.354 |
| LK-2 | 0.944 | 0.97 | 0.859 | 0.639 | 0.342 | 0.464 | 0.521 | 0.71 | 0.339 | 0.214 | 1.15 | 1.17 |  | 0.816 | 0.327 | 0.29 | 0.37 | 0.292 | 0.271 | 0.219 |
